The record followed here is patent publication US20250122191A1, “COMPOUNDS AS BCL-2 INHIBITORS” (Fochon Biosciences, Ltd, priority 2021, published 2025).

Molecules are shown by their SMILES.

What all share (format): cell-based
The subject of one test is RS4;11-BCL-2 D103E cells. Put plainly: Cell proliferation assay (MTS), RS4;11-BCL-2 D103E engineered cells. The conditions noted are these: Homo sapiens, 72 h, read-out: RS4, 11 BCL2-D103E IC50. From the text: MTS testing kit was purchased from Promega (Madison, WI, USA). The RPMI-1640, Fetal bovine serum and Penicillin-Streptomycin were purchased from BI (Biological Industries, Beit Haemek, Israel). Puromycin was purchased from Beyotime (shanghai, China). Dimethyl sulfoxide (DMSO) was purchased from Sigma (St. Louis., MO, USA). RS4;11-BCL-2 G101V (Cobioer Lot. #: CBD2021063013P4), RS4;11-BCL-2 D103E (Cobioer Lot. #: CBD2021063013P4), RS4;11-BCL-2 D103Y (Cobioer Lot. #: CBD2022012101P4) and RS4;11-BCL-2 F104L (Cobioer Lot. #: CBD2021063014P4) cells were cultured in RPMI1640 supplemented with 1 ug/mL puromycin, 100 U/mL Penicillin-Streptomycin and 10% FBS.
To investigate whether a compound is able to inhibit the activity of BCL-2 mutation in cells, a mechanism-based assay using engineered cell lines stably overexpressing BCL-2 mutation (RS4;11-BCL-2 G101V, RS4;11-BCL-2 D103E, RS4;11-BCL-2 D103Y, and RS4;11-BCL-2 F104L) was developed. In this assay, the inhibition of BCL-2 mutation was reflected by the inhibition of cell proliferation of engineered RS4;11 cells. Cells were plated into 96-well plates at optimized cell density (RS4;11-BCL-2 G101V: 5000 cells/well; RS4;11-BCL-2 D103E: 7500 cells/well; RS4;11-BCL-2 D103Y: 7500 cells/well; RS4;11-BCL-2 F104L: 5000 cells/well). Plates were incubated at 37° C., with 5% CO2 for 4 h (RS4;11-BCL-2 G101V, RS4;11-BCL-2 F104L) and 24 h (RS4;11-BCL-2 D103E, RS4;11-BCL-2 D103Y), respectively. Compounds were serially diluted and added to the plates with the final concentrations of 10000, 3333.3, 1111.1, 370.4, 123.5, 41.2, 13.7, 4.6 and 1.5 nM. Plates were incubated at 37° C., with 5% CO2 for 120 h (RS4; 11-BCL-2 G101V, RS4; 11-BCL-2 F104L) and 72 h (RS4;11-BCL-2 D103E, RS4;11-BCL-2 D103Y), respectively. 20 μl MTS was added into each well and the plates were incubated at 37° C., with 5% CO2 exactly for 2 h. The absorbance was measured by a microplate reader at 490 nm. IC50 values were calculated using GraphPad Prism 8.0 software.

The test system of a further test is RS4;11-BCL-2 G101V cells. Put plainly: Cell proliferation assay (MTS), RS4;11-BCL-2 G101V engineered cells. The conditions noted are these: Homo sapiens, 120 h, read-out: RS4, 11 BCL2-G101V IC50. The gist of the method:
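Inhibition of mutant BCL-2 is inferred from reduced proliferation of RS4;11 cells stably overexpressing the mutant. Compounds are tested at 1.5–10000 nM for 120 h (G101V, F104L) or 72 h (D103E, D103Y), with MTS absorbance at 490 nm used to derive IC50.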

The next test deals with Toledo cells. Nature of the test: Cell proliferation assay (MTS), Toledo cells. The conditions noted are these: Homo sapiens, 72 h. In outline:
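Toledo cells (RPMI-1640, 10% FBS) seeded at 30000 cells/well, rested 4 h, then exposed 72 h at 37 °C, 5% CO2 to compound at nine final concentrations, 1.5–10000 nM. Viability by MTS (2 h), absorbance at 490 nm. IC50 from the concentration-response.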

Regarding `COc1nc2[nH]cc(F)c2cc1Oc1cc(N2CCC3(CC2)CC(N2CCN(C4CCC(O)CC4)C[C@H]2c2ccccc2C(C)C)C3)ccc1C(=O)NS(=O)(=O)c1cnc(NC[C@H]2CC[C@](C)(O)CC2)c([N+](=O)[O-])c1` (single isomer, unassigned) [Example 331], the IC50 in the test with RS4;11-BCL-2 D103E cells worked out at 1 nM. For the molecule `COc1nc2[nH]cc(F)c2cc1Oc1cc(N2CCC3(CC2)CC(N2CCN(Cc4ccnc(C(C)(F)F)c4)C[C@H]2c2ccccc2C(C)C)C3)ccc1C(=O)NS(=O)(=O)c1cnc(NC[C@H]2CC[C@](C)(O)CC2)c([N+](=O)[O-])c1` [Example 149, 4-(2-((R)-4-((2-(1,1-difluoroethyl)pyridin-4-yl)methyl)-2-(2-isopropylphenyl)piperazin-1-yl)-7-azaspiro[3.5]nonan-7-yl)-2-((3-fluoro-6-methoxy-1H-pyrrolo[2,3-b]pyridin-5-yl)oxy)-N-((6-((((1r,4r)-4-hydroy-4-methylcyclohexyl)methyl)amino)-5-nitropyridin-3-yl)sulfonyl)benzamide], the IC50 in the test on RS4;11-BCL-2 D103E cells came to 1 nM. Turning to `COc1ccc(CN2CCN(C3CC4(CCN(c5ccc(C(=O)NS(=O)(=O)c6cnc(NC[C@H]7CC[C@](C)(O)CC7)c([N+](=O)[O-])c6)c(Oc6cnc7[nH]cc(F)c7c6)c5)CC4)C3)[C@H](c3ccccc3C(C)C)C2)cc1F` [Example 201, 2-((3-fluoro-1H-pyrrolo[2,3-b]pyridin-5-yl)oxy)-4-(2-((R)-4-(3-fluoro-4-methoxybenzyl)-2-(2-isopropylphenyl)piperazin-1-yl)-7-azaspiro [3.5]nonan-7-yl)-N-((6-((((1r,4r)-4-hydroxy-4-methylcyclohexyl)methyl)amino)-5-nitropyridin-3-yl)sulfonyl)benzamide], the IC50 with RS4;11-BCL-2 G101V cells and with Toledo cells was 1 nM each time. On to `CCOc1nc2[nH]cc(F)c2cc1Oc1cc(N2CCC3(CC2)CC(N2CCN(Cc4ccc(Cl)cc4)C[C@H]2c2ccccc2C(C)C)C3)ccc1C(=O)NS(=O)(=O)c1cnc(NC[C@H]2CC[C@](C)(O)CC2)c([N+](=O)[O-])c1` [Example 231, 4-(2-((R)-4-(4-chlorobenzyl)-2-(2-isopropylphenyl)piperazin-1-yl)-7-azaspiro[3.5]nonan-7-yl)-2-((6-ethoxy-3-fluoro-1H-pyrrolo[2,3-b]pyridin-5-yl)oxy)-N-((6-((((1r,4r)-4-hydroxy-4-methylcyclohexyl)methyl)amino)-5-nitropyridin-3-yl)sulfonyl)benzamide], for which the IC50 with RS4;11-BCL-2 G101V cells and in the test with Toledo cells was 1 nM each time. On to `CCOc1nc2[nH]cc(F)c2cc1Oc1cc(N2CCC3(CC2)CC(N2CCN(Cc4ccc(F)cc4)C[C@H]2c2ccccc2C(C)C)C3)ccc1C(=O)NS(=O)(=O)c1cnc(NC[C@H]2CC[C@](C)(O)CC2)c([N+](=O)[O-])c1` [Example 234, 2-((6-ethoxy-3-fluoro-1H-pyrrolo[2,3-b]pyridin-5-yl)oxy)-4-(2-((R)-4-(4-fluorobenzyl)-2-(2-isopropylphenyl)piperazin-1-yl)-7-azaspiro[3.5]nonan-7-yl)-N-((6-((((1r,4r)-4-hydroxy-4-methylcyclohexyl)methyl)amino)-5-nitropyridin-3-yl)sulfonyl)benzamide], for which the IC50 in the test on RS4;11-BCL-2 G101V cells and in the test with Toledo cells was 1 nM each time. Take `CCOc1nc2[nH]cc(F)c2cc1Oc1cc(N2CCC3(CC2)CC(N2CCN(Cc4ccc(C#N)cc4)C[C@H]2c2ccccc2C(C)C)C3)ccc1C(=O)NS(=O)(=O)c1cnc(NC[C@H]2CC[C@](C)(O)CC2)c([N+](=O)[O-])c1` [Example 235, 4-(2-((R)-4-(4-cyanobenzyl)-2-(2-isopropylphenyl)piperazin-1-yl)-7-azaspiro[3.5]nonan-7-yl)-2-((6-ethoxy-3-fluoro-1H-pyrrolo [2,3-b]pyridin-5-yl)oxy)-N-((6-((((1r,4r)-4-hydroxy-4-methylcyclohexyl)methyl)amino)-5-nitropyridin-3-yl)sulfonyl)benzamide]: the IC50 in the test with RS4;11-BCL-2 G101V cells and with Toledo cells was 1 nM each time. As for `CCOc1nc2[nH]cc(F)c2cc1Oc1cc(N2CCC3(CC2)CC(N2CCN(Cc4ccnc(OC)c4)C[C@H]2c2ccccc2C(C)C)C3)ccc1C(=O)NS(=O)(=O)c1cnc(NC[C@H]2CC[C@](C)(O)CC2)c([N+](=O)[O-])c1` [Example 241, 2-((6-ethoxy-3-fluoro-1H-pyrrolo[2,3-b]pyridin-5-yl)oxy)-N-((6-((((1r,4r)-4-hydroxy-4-methylcyclohexyl)methyl)amino)-5-nitropyridin-3-yl)sulfonyl)-4-(2-((R)-2-(2-isopropylphenyl)-4-((2-methoxypyridin-4-yl)methyl)piperazin-1-yl)-7-azaspiro[3.5]nonan-7-yl)benzamide], the IC50 with RS4;11-BCL-2 G101V cells and with Toledo cells was 1 nM throughout. On to `COc1nc2[nH]cc(F)c2cc1Oc1cc(N2CCC3(CC2)CC(N2CCN(Cc4ccc5c(c4)CCO5)C[C@H]2c2ccccc2C(C)C)C3)ccc1C(=O)NS(=O)(=O)c1cnc(NC[C@H]2CC[C@](C)(O)CC2)c([N+](=O)[O-])c1` [Example 323, 4-(2-((R)-4-((2,3-dihydrobenzofuran-5-yl)methyl)-2-(2-isopropylphenyl)piperazin-1-yl)-7-azaspiro[3.5]nonan-7-yl)-2-((3-fluoro-6-methoxy-1H-pyrrolo[2,3-b]pyridin-5-yl)oxy)-N-((6-((((1r,4r)-4-hydroxy-4-methylcyclohexyl)methyl)amino)-5-nitropyridin-3-yl)sulfonyl)benzamide], for which the IC50 in the test on RS4;11-BCL-2 G101V cells and with Toledo cells was 1 nM in each case. For `CC(C)c1ccccc1[C@@H]1CN(C[C@@H]2COCCO2)CCN1C1CC2(CCN(c3ccc(C(=O)NS(=O)(=O)c4cnc(NC[C@H]5CC[C@](C)(O)CC5)c([N+](=O)[O-])c4)c(Oc4cnc5[nH]cc(F)c5c4)c3)CC2)C1` [Example 335, 4-(2-((R)-4-(((R)-1,4-dioxan-2-yl)methyl)-2-(2-isopropylphenyl)piperazin-1-yl)-7-azaspiro[3.5]nonan-7-yl)-2-((3-fluoro-1H-pyrrolo[2,3-b]pyridin-5-yl)oxy)-N-((6-((((1r,4r)-4-hydroxy-4-methylcyclohexyl)methyl)amino)-5-nitropyridin-3-yl)sulfonyl)benzamide], the IC50 in the test on RS4;11-BCL-2 G101V cells and in the test on Toledo cells was 1 nM throughout.

For the molecule `COc1nc2[nH]cc(F)c2cc1Oc1cc(N2CCC3(CC2)CC(N2CCN(Cc4cc5c(cn4)OCCO5)C[C@H]2c2ccccc2C(C)C)C3)ccc1C(=O)NS(=O)(=O)c1cnc(NC[C@H]2CC[C@](C)(O)CC2)c([N+](=O)[O-])c1` [Example 338, 4-(2-((R)-4-((2,3-dihydro-[1,4]dioxino[2,3-c]pyridin-7-yl)methyl)-2-(2-isopropylphenyl)piperazin-1-yl)-7-azaspiro[3.5]nonan-7-yl)-2-((3-fluoro-6-methoxy-1H-pyrrolo[2,3-b]pyridin-5-yl)oxy)-N-((6-((((1r,4r)-4-hydroxy-4-methylcyclohexyl)methyl)amino)-5-nitropyridin-3-yl)sulfonyl)benzamide], the IC50 with RS4;11-BCL-2 G101V cells and in the test with Toledo cells was 1 nM throughout.

With `CC(C)c1ccccc1[C@@H]1CN(Cc2cc3c(cn2)OCCO3)CCN1C1CC2(CCN(c3ccc(C(=O)NS(=O)(=O)c4cnc(NC[C@H]5CC[C@](C)(O)CC5)c([N+](=O)[O-])c4)c(Oc4cnc5[nH]cc(F)c5c4)c3)CC2)C1` [Example 341, 4-(2-((R)-4-((2,3-dihydro-[1,4]dioxino[2,3-c]pyridin-7-yl)methyl)-2-(2-isopropylphenyl)piperazin-1-yl)-7-azaspiro[3.5]nonan-7-yl)-2-((3-fluoro-1H-pyrrolo[2,3-b]pyridin-5-yl)oxy)-N-((6-((((1r,4r)-4-hydroxy-4-methylcyclohexyl)methyl)amino)-5-nitropyridin-3-yl)sulfonyl)benzamide], the IC50 with RS4;11-BCL-2 G101V cells and in the test on Toledo cells was 1 nM each time.
